Measured values from patent US8048840B2, “Ether compound” (Kao Corporation, priority 2007, dated 2011).

Experiment: Emulsification of a mixture of water and oil
Format: physicochemical
Conditions: with addition of the compound
Excerpt: Therefore, it is understood that the novel ether compound of the present invention has good water-solubility. It was confirmed that a mixture of water and oil was emulsified with addition of the compound a1-1.

Substance: dendrimer type tetraglycidyl polylauryl ether [a1-1]
- emulsification of a mixture of water and oil: emulsified
